{"source": "patent US12370167B2", "about": "“Blood-brain barrier permeability regulator and use thereof” (ZHEJIANG UNIVERSITY, priority 2019, dated 2025)", "assay_type_in_all_cases": "cell-based", "key": {"[1]": {"tested_on": "tight junction proteins Claudin-5/Occludin in bEnd.3 cells", "assay": "Claudin-5/Occludin immunofluorescence in physiological blood-brain barrier Transwell model after SC79", "settings": "SC79 0, 5, 10 μg/mL, 24 hours", "description": "FIG. 8: In vitro dose-dependent down-regulation of expression of tight junction proteins Claudin-5/Occludin by SC79. A Transwell model of brain microvascular endothelial cells bEnd.3 was used to mimic the physiological blood-brain barrier. SC79 at different concentrations (0, 5 μg/mL, 10 μg/mL) was applied to the Transwell chamber. After 24 hours, the bEnd.3 cells on the membrane of the Transwell chamber were immunofluorescence stained.\n(§1) Brain microvascular endothelial cells bEnd.3 were used as model cells of a blood-brain barrier. 0.5 mL suspension of well-grown bEnd.3 cells was inoculated in the chamber of a 12-well Transwell plate with a pore size of 0.4 μm at a cell density of 1×10^5/well. 1.5 mL of fresh culture medium was supplemented in the outer chamber. The culture medium was refreshed every other day. Incubation was continued for 15 days at 37° C. and 5% CO2. When the cell transmembrane resistance value was greater than 150 ohm·cm^2 (Ω·cm^2), it may be regarded that a model of physiological blood-brain barrier was obtained.\nA protein kinase B activator SC79 at different concentrations (0, 5 μg/mL, 10 μg/mL) was added into the Transwell chamber in the model of physiological blood-brain barrier. […]"}, "[2]": {"tested_on": "bEnd.3 cells; bEnd.3 co-incubated with U87 MG", "assay": "Real-time transmembrane resistance of physiological and pathological blood-brain barrier models after SC79", "settings": "SC79 5 μg/mL", "description": "FIG. 9: In vitro time-dependent regulation of transmembrane resistance of the blood-brain barrier by SC79. A Transwell model of brain microvascular endothelial cells bEnd.3 was used to mimic the physiological blood-brain barrier. A Transwell model of co-incubated brain microvascular endothelial cells bEnd.3 and glioma cell U87 MG was used to mimic the pathological blood-brain barrier. SC79 (5 μg/mL) was applied to the Transwell chamber. The cell transmembrane resistance was real-time monitored by a cell resistance meter (n=5).\n(§2) Brain microvascular endothelial cells bEnd.3 were used as model cells of a blood-brain barrier. 0.5 mL suspension of well-grown bEnd.3 cells was inoculated in the chamber of a 12-well Transwell plate with a pore size of 0.4 μm at a cell density of 1×10^5/well. 1.5 mL of fresh culture medium was supplemented in the outer chamber. The culture medium was refreshed every other day. Incubation was continued for 15 days at 37° C. and 5% CO2. […]\nThe physiological blood-brain barrier and the pathological blood-brain barrier, as respectively constructed according to the procedures described in the above sections of 1 and 2 of Example 2, were used as a model, respectively. […] The cell transmembrane resistance was real-time monitored."}, "[3]": {"tested_on": "brain microvascular endothelial cells bEnd.3", "assay": "FITC-dextran transport across physiological blood-brain barrier Transwell model", "settings": "SC79 0, 5, 10 μg/mL; 24 hours, then FITC-dextran 10 kDa for 4 hours", "description": "FIG. 7: In vitro dose-dependent influence of SC79 on the efficiency of transportation of FITC-dextran cross the blood-brain barrier. A Transwell model of brain microvascular endothelial cells bEnd.3 was used to mimic the physiological blood-brain barrier. SC79 at different concentrations (0, 5 μg/mL, 10 μg/mL) was applied to the Transwell chamber. After 24 hours, the Transwell chamber and the outer chamber were washed with PBS. A solution of FITC-dextran in HBSS was added to the Transwell chamber for an action of 4 hours.\nas §2\nA protein kinase B activator SC79 at different concentrations ([…], 10 μg/mL) was added into the Transwell chamber in the model of physiological blood-brain barrier. […] After the cells were incubated at 37° C. in the dark for 4 hours, the concentration of FITC-dextran transferred to the outer chamber via the Transwell chamber was detected with a fluorescence spectrophotometer."}, "[4]": {"tested_on": "brain microvascular endothelial cells bEnd.3", "assay": "Transmembrane resistance of physiological blood-brain barrier Transwell model, SC79 dose dependence", "settings": "SC79 0, 5, 10 μg/mL; 24 hours; n=5", "description": "A Transwell model of brain microvascular endothelial cells bEnd.3 was used to mimic the physiological blood-brain barrier. SC79 at different concentrations (0, 5 μg/mL, 10 μg/mL) was applied to the Transwell chamber. After 24 hours, the cell transmembrane resistance was detected by a cell resistance meter (n=5).\nas §1\nA protein kinase B activator SC79 at different concentrations (0, 5 μg/mL, 10 μg/mL) was added into the Transwell chamber in the model of physiological blood-brain barrier. After 24 hours of the drug action, the Transwell chamber with bEnd.3 cells grown was transferred to another 12-well plate, and washed with PBS for 3 times. […] After the cells were equilibrated at 37° C. for 15 minutes, the cell transmembrane resistance was detected by a cell resistance meter."}}}
{"smiles": "CCOC(=O)C1=C(N)Oc2ccc(Cl)cc2C1C(C#N)C(=O)OCC", "note": "(centres unmarked) [SC79]", "values": [{"measurement": "expression of tight junction proteins Claudin-5/Occludin", "setting": "[1]", "value": "promotes down-regulation of expression of tight junction proteins"}, {"measurement": "effect in increasing the blood-brain barrier permeability", "setting": "[2]; after 24 hours of the drug action", "value": "most significant effect"}, {"measurement": "cell transmembrane resistance over time", "setting": "[2]; physiological and pathological models, real-time", "value": "decreased in a time-dependent manner"}, {"measurement": "blood-brain barrier permeability (FITC-dextran in outer chamber)", "setting": "[3]", "value": "increase the blood-brain barrier permeability"}, {"measurement": "cell transmembrane resistance", "setting": "[4]", "value": "dose-dependent regulation of transmembrane resistance"}]}
